# Test results: patent US12692230B2, “(1 h-indol-5-yl)acrylamide derivatives as inhibitors of TEAD proteins and the hippo-YAP1/TAZ signaling cascade for the treatment of cancer” (Sanofi, priority 2020, dated 2026)
# System: TEAD responsive promoter element (8XGTIIC-Luciferase; YAP1-TEAD and TAZ-TEAD activity)
# Assay: TEAD-Luciferase reporter assay
# Format: cell-based
# Settings: Homo sapiens; luciferase activity in tumor cell lines with stable integration of the 8XGTIIC-Luciferase construct; 10 doses between 1 and 10000 nM, 48 hrs
# Excerpt: TEAD-Luciferase Reporter Assay
# Luciferase-based gene reporter assays were used, employing the TEAD responsive promoter element that are stably integrated to different human tumor cell lines in order to monitor YAP1-TEAD and TAZ-TEAD activity and to study YAP1/TAZ-TEAD activity modulation by small molecule compounds. Luciferase-based gene reporter assays employing the GAPDH promoter element and stably integrated to different human tumor cell lines are used as counter screen control cell lines.
# Tumor cell lines with stable integration of the 8XGTIIC-Luciferase construct (Dupont et al., Nature 2011) or the GAPDH-Luciferase control plasmid, are seeded in culture medium in 96-well plates at a density of 8000 cells/well. Following an overnight incubation in a 37° C., 5% CO2 growth chamber, cells are treated with compounds described above at 10 doses ranging between 1 and 10000 nM for 48 hrs. After compound incubation, cells are lysed with Bright-Glo Luciferase Assay System (Promega E2620) and luciferase activity is measured using a luminescent plate reader.
# The inhibitory activity of the compounds with respect to luciferase activity is given by the concentration which inhibits 50% of activity of non-treated cells. IC50s are determined with a nonlinear regression model on XLfit software analysis (IDBS, UK).
row,SMILES,IC50 [nM]
1,"C=CC(=O)N(C)c1ccc2c(ccn2Cc2cccc(C(F)(F)F)c2)c1 [Example 2, N-methyl-N-(1-(3-(trifluoromethyl)benzyl)-1H-indol-5-yl)acrylamide]",1090
2,"C=CC(=O)Nc1ccc2c(ccn2C(C)c2cccc(C(F)(F)F)c2)c1 (stereo not drawn) [Example 4, N-(1-(1-(3-(trifluoromethyl)phenyl)ethyl)-1H-indol-5-yl)acrylamide]",558
3,"C=CC(=O)Nc1ccc2c(ccn2Cc2ccc(S(F)(F)(F)(F)F)cc2)c1 [Example 6, N-(1-(4-(pentafluoro-λ6-sulfanyl)benzyl)-1H-indol-5-yl)acrylamide]",4040
4,"C=CC(=O)Nc1ccc2c(ccn2Cc2ccc(OC(F)(F)F)cc2)c1 [Example 7, N-(1-(4-(trifluoromethoxy)benzyl)-1H-indol-5-yl)acrylamide]",≥ 10000
5,"C=CC(=O)Nc1ccc2c(ccn2Cc2cccc(OC(F)(F)F)c2)c1 [Example 8, N-(1-(3-(trifluoromethoxy)benzyl)-1H-indol-5-yl)acrylamide]",296
6,"C=CC(=O)Nc1ccc2c(ccn2Cc2cc(C(F)(F)F)ccc2F)c1 [Example 10, N-(1-(2-fluoro-5-(trifluoromethyl)benzyl)-1H-indol-5-yl)acrylamide]",7220
7,"C=CC(=O)Nc1ccc2c(ccn2Cc2cccc(C3CC3)c2)c1 [Example 15, N-(1-(3-cyclopropylbenzyl)-1H-indol-5-yl)acrylamide]",496
8,"C=CC(=O)Nc1ccc2c(ccn2Cc2ccccc2)c1 [Example 18, N-(1-Benzyl-1H-indol-5-yl)-acrylamide]",963
9,"CN(C)C/C=C/C(=O)Nc1cccc2c1ccn2Cc1cccc(C(F)(F)F)c1 [Example 20, (E)-4-(dimethylamino)-N-(1-(3-(trifluoromethyl)benzyl)-1H-indol-4-yl)but-2-enamide]",7760
10,"C=CC(=O)Nc1ccc2c(ccn2CC2CCC(F)(F)CC2)c1 [Example 22, N-(1-((4,4-difluorocyclohexyl)methyl)-1H-indol-5-yl)acrylamide]",1400
11,"C=CC(=O)Nc1ccc2c(ccn2CC2CCOCC2)c1 [Example 23, N-(1-((tetrahydro-2H-pyran-4-yl)methyl)-1H-indol-5-yl)acrylamide]",369
12,"C=CC(=O)Nc1ccc2c(ccn2CC2CCC(C(F)(F)F)CC2)c1 (stereo not drawn) [Example 24, N-(1-((4-(trifluoromethyl)cyclohexyl)methyl)-1H-indol-5-yl)acrylamide]",1000
13,"C=CC(=O)Nc1ccc2c(ccn2CC2CC3(C2)CC3(F)F)c1 (stereo not drawn) [Example 25, N-(1-((1,1-difluorospiro[2.3]hexan-5-yl)methyl)-1H-indol-5-yl)acrylamide]",1000
14,"C=CC(=O)Nc1ccc2c(ccn2CC2CCC(F)C2)c1 (stereo not drawn) [Example 26, N-(1-((3-fluorocyclopentyl)methyl)-1H-indol-5-yl)acrylamide]",357
15,"C=CC(=O)Nc1ccc2c(ccn2CC2CCCCC2)c1 [Example 27, N-(1-(cyclohexylmethyl)-1H-indol-5-yl)acrylamide]",≥ 10000
16,"C=CC(=O)Nc1ccc2c(ccn2CC2CC(C(F)(F)F)C2)c1 (stereo not drawn) [Example 28, N-(1-((3-(trifluoromethyl)cyclobutyl)methyl)-1H-indol-5-yl)acrylamide]",≥ 10000
17,"C=CC(=O)Nc1ccc2c(ccn2Cc2ccc(-c3ccccc3)cc2)c1 [Example 30, N-(1-([1,1′-biphenyl]-4-ylmethyl)-1H-indol-5-yl)acrylamide]",≥ 10000
18,"C=CC(=O)Nc1ccc2c(ccn2Cc2ccc(-c3ccc(C(F)(F)F)cc3)cc2)c1 [Example 32, N-(1-((4′-(trifluoromethyl)-[1,1′-biphenyl]-4-yl)methyl)-1H-indol-5-yl)acrylamide]",7840
19,"C=CC(=O)Nc1ccc2c(ccn2[C@H]2CC[C@@H](C(F)(F)F)CC2)c1 [Example 34, Cis-N-[1-[4-(trifluoromethyl)cyclohexyl]indol-5-yl]acrylamide]",≥ 10000
20,"C=CC(=O)Nc1ccc2c(ccn2CC2CCN(c3ccc(C(F)(F)F)cc3)CC2)c1 [Example 35, N-(1-((1-(4-(trifluoromethyl)phenyl)piperidin-4-yl)methyl)-1H-indol-5-yl)acrylamide]",2330
21,"C=CC(=O)Nc1ccc2c(ccn2CCN(C)CC(F)(F)F)c1 [Example 36, N-(1-(2-(methyl(2,2,2-trifluoroethyl)amino)ethyl)-1H-indol-5-yl)acrylamide]",4560
22,"C=CC(=O)Nc1ccc2c(ccn2CCOCC(F)(F)F)c1 [Example 37, N-(1-(2-(2,2,2-trifluoroethoxy)ethyl)-1H-indol-5-yl)acrylamide]",> 10000
23,"C=CC(=O)Nc1ccc2c(ccn2C2CCN(CC(F)(F)F)CC2)c1 [Example 38, N-(1-(1-(2,2,2-trifluoroethyl)piperidin-4-yl)-1H-indol-5-yl)acrylamide]",1500
24,"C=CC(=O)Nc1ccc2c(ccn2C2CCN(c3ccc(C(F)(F)F)cc3)CC2)c1 [Example 40, N-(1-(1-(4-(trifluoromethyl)phenyl)piperidin-4-yl)-1H-indol-5-yl)acrylamide]",≥ 10000
25,"C=CC(=O)Nc1ccc2c(ccn2CCCN2CCC(F)(F)C2)c1 [Example 41, N-(1-(3-(3,3-difluoropyrrolidin-1-yl)propyl)-1H-indol-5-yl)acrylamide]",≥ 10000
26,"C=CC(=O)Nc1ccc2c(ccn2Cc2ccc([Si](C)(C)C)cc2)c1 [Example 42, N-(1-(4-(trimethylsilyl)benzyl)-1H-indol-5-yl)acrylamide]",211

# The remaining compounds from weak to strong by IC50, led by results:
row,IC50 [nM],SMILES
1,241,"C=CC(=O)Nc1ccc2c(ccn2Cc2cccc(OC)c2)c1 [Example 12, N-(1-(3-methoxybenzyl)-1H-indol-5-yl)acrylamide]"
2,236,"C=CC(=O)Nc1ccc2c(c1)c(C#N)cn2Cc1cccc(C(F)(F)F)c1 [Example 14, N-(3-cyano-1-(3-(trifluoromethyl)benzyl)-1H-indol-5-yl)acrylamide]"
3,195,"C=CC(=O)Nc1cccc2c1ccn2Cc1cccc(C(F)(F)F)c1 [Example 19, N-(1-(3-(trifluoromethyl)benzyl)-1H-indol-4-yl)acrylamide]"
4,143,"C=CC(=O)Nc1ccc2c(ccn2Cc2cccc(I)c2)c1 [Example 9, N-(1-(3-iodobenzyl)-1H-indol-5-yl)acrylamide]"
5,106,"C=CC(=O)Nc1ccc2c(ccn2-c2ccc(C(F)(F)F)nc2)c1 [Example 45, N-(1-(6-(trifluoromethyl)pyridin-3-yl)-1H-indol-5-yl)acrylamide]"
6,84,"C=CC(=O)Nc1ccc2c(ccn2C2CCC(F)(F)CC2)c1 [Example 39, N-(1-(4,4-difluorocyclohexyl)-1H-indol-5-yl)acrylamide]"
7,63,"C=CC(=O)Nc1ccc2c(c1)cc(C)n2Cc1cccc(C(F)(F)F)c1 [Example 13, N-(2-methyl-1-(3-(trifluoromethyl)benzyl)-1H-indol-5-yl)acrylamide]"
8,61,"C=CC(=O)Nc1ccc2c(ccn2Cc2cccc(S(F)(F)(F)(F)F)c2)c1 [Example 5, N-(1-(3-(pentafluoro-λ6-sulfanyl)benzyl)-1H-indol-5-yl)acrylamide]"
9,54,"C=CC(=O)Nc1ccc2c(ccn2Cc2cccc(C)c2)c1 [Example 17, N-(1-(3-methylbenzyl)-1H-indol-5-yl)acrylamide]"
10,43,"C=CC(=O)Nc1ccc2c(ccn2CC2CCC(F)(F)C2)c1 (stereo not drawn) [Example 29, N-(1-((3,3-difluorocyclopentyl)methyl)-1H-indol-5-yl)acrylamide]"
11,41,"C=CC(=O)Nc1ccc2c(ccn2[C@H]2CC[C@H](C(F)(F)F)CC2)c1 [Example 33, Trans-N-[1-[4-(trifluoromethyl)cyclohexyl]indol-5-yl]acrylamide]"
12,36,"C=CC(=O)Nc1ccc2c(ccn2-c2cccc(C(F)(F)F)c2)c1 [Example 43, N-(1-(3-(trifluoromethyl)phenyl)-1H-indol-5-yl)acrylamide]"
13,35,"C=CC(=O)Nc1ccc2ccn(Cc3cccc(C(F)(F)F)c3)c2c1 [Example 21, N-(1-(3-(trifluoromethyl)benzyl)-1H-indol-6-yl)acrylamide]"
14,31,"C=CC(=O)Nc1ccc2c(c1)c(C)c(C)n2Cc1cccc(C(F)(F)F)c1 [Example 16, N-(2,3-dimethyl-1-(3-(trifluoromethyl)benzyl)-1H-indol-5-yl)acrylamide]"
15,30,"C=CC(=O)Nc1ccc2c(c1)c(C)cn2Cc1cccc(C(F)(F)F)c1 [Example 11, N-(3-methyl-1-(3-(trifluoromethyl)benzyl)-1H-indol-5-yl)acrylamide]"
16,25,"C=CC(=O)Nc1ccc2c(ccn2CCCCC(F)(F)F)c1 [Example 3, N-(1-(5,5,5-trifluoropentyl)-1H-indol-5-yl)acrylamide]"
17,24,"C=CC(=O)Nc1ccc2c(ccn2Cc2cccc(C(F)(F)F)c2)c1 [Example 1, N-(1-(3-(trifluoromethyl)benzyl)-1H-indol-5-yl)acrylamide]"
18,20,"C=CC(=O)Nc1ccc2c(ccn2Cc2ccc(-c3cccc(C(F)(F)F)c3)cc2)c1 [Example 31, N-(1-((3′-(trifluoromethyl)-[1,1′-biphenyl]-4-yl)methyl)-1H-indol-5-yl)acrylamide]"
19,8,"C=CC(=O)Nc1ccc2c(ccn2-c2ccc(C(F)(F)F)cc2)c1 [Example 44, N-(1-(4-(trifluoromethyl)phenyl)-1H-indol-5-yl)acrylamide]"
